Measurements from ChEMBL document CHEMBL1201862, “PubChem BioAssay data set” (2004).
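Following 48 hours of exposure in 96-well plates, responses at five concentrations were used to interpolate endpoints linearly. GI50 marks 50% less growth.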 The source made the active and inactive calls. Rule as the data show it: active = GI50 up to about 1.1 µM and inactive = higher.

What was measured:
Test in all cases: NCI tumour cell line growth inhibition, 48 h
DLD-1 = test system: DLD-1
DMS-273 = test system: DMS-273
HCT-116 = test system: HCT-116
HL-60 = test system: HL-60
HOP-18 = test system: HOP-18
HOP-62 = test system: HOP-62
KM-20L2 = test system: KM-20L2
OVCAR-5 = test system: OVCAR-5
SF-268 = test system: SF-268
SK-MEL-2 = test system: SK-MEL-2
SN12C = test system: SN12C
SNB-78 = test system: SNB-78
UO-31 = test system: UO-31
ACHN = test system: ACHN
CAKI-1 = test system: CAKI-1
LXFL 529 = test system: LXFL 529
M14 = test system: M14
SR = test system: SR
TK-10 = test system: TK-10
DU-145 = test system: DU-145

Row | Structure (SMILES) | GI50 (DLD-1) | GI50 (DMS-273) | GI50 (HCT-116) | GI50 (HL-60) | GI50 (HOP-18) | GI50 (HOP-62) | GI50 (KM-20L2) | GI50 (OVCAR-5) | GI50 (SF-268) | GI50 (SK-MEL-2) | GI50 (SN12C) | GI50 (SNB-78) | GI50 (UO-31) | GI50 (ACHN) | GI50 (CAKI-1) | GI50 (LXFL 529) | GI50 (M14) | GI50 (SR) | GI50 (TK-10) | GI50 (DU-145)
1 | CC(C)Cc1ccc(C(C)C(=O)N2CCN(/C=C/c3ccccc3)CC2)cc1 (stereo not given) | 13.7 µM (inactive) | 11.4 µM (inactive) | 13.4 µM (inactive) | 3.94 µM (inactive) | 21.5 µM (inactive) | 15.8 µM (inactive) | 15.5 µM (inactive) | 13.9 µM (inactive) | 16.3 µM (inactive) | 13.6 µM (inactive) | 15.8 µM (inactive) | 25.1 µM (inactive) | 10.5 µM (inactive) |  |  |  |  |  |  | 
2 | O=C(O)C(Cl)(Cl)Cl | > 100 µM (inactive) | > 100 µM (inactive) | > 100 µM (inactive) | > 100 µM (inactive) | 80 µM (inactive) |  | > 100 µM (inactive) | > 100 µM (inactive) | > 100 µM (inactive) | > 100 µM (inactive) | > 100 µM (inactive) | > 100 µM (inactive) | > 100 µM (inactive) | > 100 µM (inactive) | > 100 µM (inactive) | > 100 µM (inactive) | > 100 µM (inactive) | > 100 µM (inactive) | > 100 µM (inactive) | 
3 | CCOc1ccc(C2=C(Cl)c3cc(OC)c(OC)cc3C2Cl)cc1 (stereo not given) | 37.6 µM (inactive) | 37.9 µM (inactive) |  | 13.4 µM (inactive) | 42.8 µM (inactive) |  | 38.8 µM (inactive) |  | 59.6 µM (inactive) | 23.1 µM (inactive) | 42.4 µM (inactive) | 27.4 µM (inactive) | 45 µM (inactive) | 31.6 µM (inactive) | 46.1 µM (inactive) | 26.8 µM (inactive) | 35.8 µM (inactive) |  | 79.8 µM (inactive) | 
4 | CC(C)(O)/C1=C/C=C/CCCCCCCCCC1 |  |  | > 100 µM (inactive) | 28.9 µM (inactive) |  | > 100 µM (inactive) |  | > 100 µM (inactive) | > 100 µM (inactive) | > 100 µM (inactive) | > 100 µM (inactive) |  | 51.9 µM (inactive) | > 100 µM (inactive) | > 100 µM (inactive) |  | > 100 µM (inactive) | 34 µM (inactive) | > 100 µM (inactive) | > 100 µM (inactive)
5 | CC(C)(C)OC(=O)NCCc1ccc(N)cc1 |  |  | > 100 µM (inactive) | 17.5 µM (inactive) |  | > 100 µM (inactive) |  |  | > 100 µM (inactive) |  |  |  | 4.2 µM (inactive) | > 100 µM (inactive) |  |  | > 100 µM (inactive) | 55.6 µM (inactive) | > 100 µM (inactive) | > 100 µM (inactive)
6 | COC(=O)c1ccc(/N=N/N(C)COc2ccc(Br)cc2)cc1 | > 54.6 µM (inactive) | > 89.9 µM (inactive) | > 100 µM (inactive) | 20.2 µM (inactive) | > 100 µM (inactive) | > 100 µM (inactive) | > 81.1 µM (inactive) | > 83.8 µM (inactive) | > 75.5 µM (inactive) | > 100 µM (inactive) | 68.5 µM (inactive) | > 100 µM (inactive) | > 100 µM (inactive) |  | > 57.7 µM (inactive) |  |  |  |  | 
7 | CC12CCC(C(=O)N3CC=CCC3)(OC1=O)C2(C)C (stereo not given) | > 100 µM (inactive) | > 100 µM (inactive) | > 100 µM (inactive) | > 100 µM (inactive) | > 100 µM (inactive) | > 100 µM (inactive) | > 100 µM (inactive) | > 100 µM (inactive) | > 100 µM (inactive) | > 100 µM (inactive) | > 100 µM (inactive) | > 100 µM (inactive) | > 100 µM (inactive) |  | > 100 µM (inactive) |  |  |  |  | 
8 | CCCC(=O)OCC1OC(n2ccc(N)nc2=O)C(OC(=O)CCC)C1OC(=O)CCC (stereo not given) | > 100 µM (inactive) | 36.7 µM (inactive) | 33.3 µM (inactive) | 1.67 µM (inactive) | 1 µM (active) | 0.0957 µM (active) | 11.4 µM (inactive) | 15.5 µM (inactive) | > 42.4 µM (inactive) | > 85.9 µM (inactive) | 16.5 µM (inactive) | > 100 µM (inactive) | 21.6 µM (inactive) |  | 5.25 µM (inactive) |  |  |  |  | 
9 | CC(C)Cc1cccc(C(C)C)c1NC(=O)CCC(=O)N/N=C1\C(=N/NC(=O)CCC(=O)Nc2c(C(C)C)cccc2C(C)C)C(c2ccc3c(c2)OCO3)Oc2ccccc21 (stereo not given) | 40.8 µM (inactive) | 76.9 µM (inactive) | 61.2 µM (inactive) | 34.2 µM (inactive) |  | 71.9 µM (inactive) | > 100 µM (inactive) | > 100 µM (inactive) | 67.8 µM (inactive) | > 100 µM (inactive) | 43.2 µM (inactive) | 94 µM (inactive) | 43.6 µM (inactive) | 83 µM (inactive) | 53.2 µM (inactive) | 43.6 µM (inactive) | > 100 µM (inactive) | 55.7 µM (inactive) | > 100 µM (inactive) | 
